Data reported in publication PMC8528861, “Structural and functional analysis of target recognition by the lymphocyte adaptor protein LNK” (Nature Communications, 2021).
Where a SMILES comes first, the peptide text is derived from it. [ ]: non-standard residue; d: D form. pY = N[C@@H](Cc1ccc(OP(=O)(O)O)cc1)C(=O)O

molecular target: T1, LNK SH2 domain (Mus musculus, UniProt O09039); assay: SPR competition assay (immobilised IL6ST pY757 peptide); assay type: binding; details: mutant vs WT JAK2 pY813 peptide
T1 construct: DNA encoding the mouse LNK SH2 domain (residues 324–446) and an N-terminal NusA; NusA (N, cleaved yes); made in house; host or cells: E. coli (tuner (DE3), BL21(DE3) or C43)
Procedure: SH2 domains typically bind ligands with a specific preference for amino acids at the −2 to +5 positions, relative to phosphotyrosine. […] To determine the contribution of individual residues, we made a series of mutations within the JAK2 phosphopeptide, and measured their affinity for the LNK SH2 domain via a surface plasmon resonance (SPR) competition assay (Fig. 3). The LNK SH2 domain was incubated with increasing concentrations of mutant JAK2 pY813 peptides before being passed over a chip coated with an immobilised low affinity phosphopeptide derived from a site on the intracellular domain of the IL-6 receptor, IL6ST. […] The +2 residue was not mutated as the structure indicates its sidechain points towards solvent.
The LNK SH2 domain has been proposed to interact with a suite of phosphorylated sites on various signalling proteins[16]–[19],[32]. […] In addition, binding to the activation loops of JAK2 and IRK, and pY785 of JAK3 were also examined. […] Given that SH2 domains will bind to most phosphorylated sequences to some degree, in line with the literature on SH2 domains and their targets[33] we applied a threshold cut-off of 2000 nM, where an IC50 over this value indicates a physiologically irrelevant interaction.
SPR competition assays were performed on either a Biacore 4000 or 200 (GE Healthcare) in 10 mM HEPES (pH 7.4), 150 mM NaCl, 3.4 mM EDTA, 0.005% Tween 20 using a streptavidin coated chip and were regenerated in 50 mM NaOH, 1 M NaCl. A biotinylated peptide representing the IL6ST pY757 sequence was immobilised to the chip by passing over 1 μg/mL of peptide dissolved in 10 mM HEPES pH 7.4, 150 mM NaCl, 3.4 mM EDA, 0.005% Tween 20. 0.1–0.5 μM of WT LNK SH2 domain was pre-incubated with 2, 1, 0.5, 0.25, 0.125 or 0 mM phosphopeptides before being flowed over the chip for 240–720 seconds at 10–30 μL/min. Data was analysed using Prism, the response of LNK in the presence of the peptide was normalised to an LNK only control and then fitted as an IC50 curve via non-linear regression.

T1 sequence (O09039 324-446): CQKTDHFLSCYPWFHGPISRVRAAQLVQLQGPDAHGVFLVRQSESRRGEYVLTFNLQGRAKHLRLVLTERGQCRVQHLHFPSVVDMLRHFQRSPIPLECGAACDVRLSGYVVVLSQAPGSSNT

Compound | fold decrease in affinity
CC(C)C[C@H](NC(=O)[C@H](CCCNC(=N)N)NC(=O)[C@H](Cc1ccc(OP(=O)(O)O)cc1)NC(=O)[C@H](CC(=O)O)NC(=O)[C@@H]1CCCN1C(=O)[C@@H](NC(=O)[C@@H](N)Cc1ccccc1)[C@@H](C)O)C(=O)N[C@@H](CC(C)C)C(=O)N[C@H](C(=O)N[C@@H](CCC(=O)O)C(=O)N[C@@H](CC(N)=O)C(=O)N[C@@H](CC(=O)O)C(=O)O)[C@@H](C)O [+1R] (H-FTPD[pY]RLLTEND-OH) | > 80 fold
CC(C)C[C@H](NC(=O)[C@H](CCC(=O)O)NC(=O)[C@H](Cc1ccc(OP(=O)(O)O)cc1)NC(=O)[C@H](CC(=O)O)NC(=O)[C@@H]1CCCN1C(=O)[C@@H](NC(=O)[C@@H](N)Cc1ccccc1)[C@@H](C)O)C(=O)N[C@@H](Cc1ccccc1)C(=O)N[C@H](C(=O)N[C@@H](CCC(=O)O)C(=O)N[C@@H](CC(N)=O)C(=O)N[C@@H](CC(=O)O)C(=O)O)[C@@H](C)O [+3F] (H-FTPD[pY]ELFTEND-OH; N-terminus and C-terminus assumed) | ~ 25 fold

same assay, conditions: phosphopeptide competition assay; mean of at least two technical replicates from two, three or four independent experiments; read-out: IC50

Compound | IC50
CC(C)C[C@H](NC(=O)[C@H](CS)NC(=O)CNC(=O)[C@H](CC(N)=O)NC(=O)[C@H](CCC(N)=O)NC(=O)[C@H](Cc1ccc(OP(=O)(O)O)cc1)NC(=O)[C@H](CC(C)C)NC(=O)[C@H](Cc1c[nH]c2ccccc12)NC(=O)[C@H](CC(C)C)NC(=O)[C@@H](N)CCC(N)=O)C(=O)N[C@@H](Cc1c[nH]c2ccccc12)C(=O)N[C@@H](Cc1c[nH]c2ccccc12)C(=O)O [EPOR pY309] (H-QLWL[pY]QNGCLWW-OH; N-terminus and C-terminus assumed) | > 10 µM
NC(=O)C[C@H](NC(=O)[C@H](CCC(=O)O)NC(=O)[C@H](Cc1ccc(O)cc1)NC(=O)[C@@H]1CCCN1C(=O)[C@H](CC(N)=O)NC(=O)[C@H](CO)NC(=O)[C@H](Cc1ccc(OP(=O)(O)O)cc1)NC(=O)[C@@H]1CCCN1C(=O)CNC(=O)[C@H](CC(=O)O)NC(=O)[C@@H](N)CO)C(=O)N[C@@H](CO)C(=O)O [EPOR pY485] (H-SDGP[pY]SNPYENS-OH; N-terminus and C-terminus assumed) | > 10 µM
CSCC[C@H](NC(=O)[C@H](CCC(N)=O)NC(=O)[C@H](CC(C)C)NC(=O)[C@H](CCC(N)=O)NC(=O)[C@H](CO)NC(=O)[C@H](CCC(=O)O)NC(=O)[C@H](Cc1ccc(OP(=O)(O)O)cc1)NC(=O)[C@H](CCCNC(=N)N)NC(=O)[C@H](Cc1ccccc1)NC(=O)[C@H](CCC(N)=O)NC(=O)[C@H](CCCCN)NC(=O)[C@H](CCCCN)NC(=O)[C@@H](N)Cc1ccc(O)cc1)C(=O)O [FLT3 pY572] (H-YKKQFR[pY]ESQLQM-OH; N-terminus and C-terminus assumed) | > 10 µM
C[C@@H](O)[C@H](NC(=O)[C@@H](N)CCC(=O)O)C(=O)N[C@@H](CC(=O)O)C(=O)N[C@@H](Cc1ccc(OP(=O)(O)O)cc1)C(=O)N[C@@H](Cc1ccc(OP(=O)(O)O)cc1)C(=O)N[C@@H](CCCNC(=N)N)C(=O)N[C@@H](CCCCN)C(=O)NCC(=O)NCC(=O)N[C@@H](CCCCN)C(=O)NCC(=O)O [IRK pY1445/pY1446] (H-ETD[pY][pY]RKGGKG-OH; N-terminus and C-terminus assumed) | > 10 µM
CC[C@H](C)[C@H](NC(=O)[C@H](C)N)C(=O)N[C@@H](CCC(=O)O)C(=O)N[C@H](C(=O)N[C@@H](CC(=O)O)C(=O)N[C@@H](CCCCN)C(=O)N[C@@H](CCC(=O)O)C(=O)N[C@@H](Cc1ccc(OP(=O)(O)O)cc1)C(=O)N[C@@H](Cc1ccc(OP(=O)(O)O)cc1)C(=O)N[C@@H](CCCCN)C(=O)N[C@H](C(=O)N[C@@H](CCCCN)C(=O)N[C@@H](CCC(=O)O)C(=O)N1CCC[C@H]1C(=O)NCC(=O)O)C(C)C)[C@@H](C)O [JAK2 pY1007/pY1008] (H-AIETDKE[pY][pY]KVKEPG-OH; N-terminus and C-terminus assumed) | > 10 µM
